Columns and labels:
[1] = target: T1, Signal transducer and activator of transcription 6 (Homo sapiens, UniProt P42226); test: Inhibition of STAT6 in IL4-stimulated human FW4 reporter cells by luciferase assay
T1 sequence (P42226 whole entry): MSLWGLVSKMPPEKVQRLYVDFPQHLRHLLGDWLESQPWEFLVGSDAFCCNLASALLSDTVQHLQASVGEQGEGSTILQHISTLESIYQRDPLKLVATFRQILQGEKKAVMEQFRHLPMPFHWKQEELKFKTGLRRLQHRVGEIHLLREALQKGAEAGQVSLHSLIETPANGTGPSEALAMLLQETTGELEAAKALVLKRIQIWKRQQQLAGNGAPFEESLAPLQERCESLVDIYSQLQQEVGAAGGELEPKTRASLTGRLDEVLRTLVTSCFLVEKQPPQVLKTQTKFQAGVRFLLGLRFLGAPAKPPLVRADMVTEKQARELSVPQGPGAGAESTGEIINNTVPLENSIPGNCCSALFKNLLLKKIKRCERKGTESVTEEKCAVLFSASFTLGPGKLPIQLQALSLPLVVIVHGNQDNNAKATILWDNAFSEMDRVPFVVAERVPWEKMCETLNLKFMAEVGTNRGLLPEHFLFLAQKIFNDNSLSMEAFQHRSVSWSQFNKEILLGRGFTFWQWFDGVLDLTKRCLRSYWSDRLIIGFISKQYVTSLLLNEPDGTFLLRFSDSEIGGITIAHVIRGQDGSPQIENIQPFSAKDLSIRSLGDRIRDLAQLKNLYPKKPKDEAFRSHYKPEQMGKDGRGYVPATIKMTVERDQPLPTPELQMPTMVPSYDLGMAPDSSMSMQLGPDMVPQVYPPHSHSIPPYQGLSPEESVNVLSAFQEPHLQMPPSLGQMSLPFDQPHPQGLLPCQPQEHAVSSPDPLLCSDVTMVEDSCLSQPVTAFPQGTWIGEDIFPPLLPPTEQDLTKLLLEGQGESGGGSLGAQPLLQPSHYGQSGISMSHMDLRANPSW

CYP3A4 [2] = target: T2, CYP3A4 (Homo sapiens, UniProt P08684); test: Inhibition of CYP3A4 in human liver microsomes assessed as residual activity at 5 uM; type: ADME, Microsome; settings: read-out: Activity
T2 sequence (P08684 whole entry): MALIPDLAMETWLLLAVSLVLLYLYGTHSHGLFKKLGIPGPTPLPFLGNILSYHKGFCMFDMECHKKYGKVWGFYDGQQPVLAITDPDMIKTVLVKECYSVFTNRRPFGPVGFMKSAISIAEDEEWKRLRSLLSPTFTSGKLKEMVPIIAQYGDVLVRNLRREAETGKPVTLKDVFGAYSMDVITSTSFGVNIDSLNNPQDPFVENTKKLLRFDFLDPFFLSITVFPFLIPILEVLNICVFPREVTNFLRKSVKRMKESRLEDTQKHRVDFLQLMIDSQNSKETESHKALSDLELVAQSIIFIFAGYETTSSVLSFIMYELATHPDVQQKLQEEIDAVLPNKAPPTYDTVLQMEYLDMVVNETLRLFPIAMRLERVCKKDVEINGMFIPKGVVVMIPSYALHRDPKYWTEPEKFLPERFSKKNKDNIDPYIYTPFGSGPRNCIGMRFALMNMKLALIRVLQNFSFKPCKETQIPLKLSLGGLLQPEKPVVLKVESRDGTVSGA

CYP3A4 [3] = target: T2, CYP3A4; test: Inhibition of CYP3A4 in human liver microsomes assessed as residual activity at 5 uM after 30 mins; type: ADME, Microsome; settings: read-out: Activity
T-cell = test: Inhibition of IL4 production in C57BL/6 mouse T cell after 16 hrs by T cell differentiation assay; type: functional, cell-based; settings: C57BL/6, T-cell
Mus musculus = organism: Mus musculus; test: Antiasthmatic activity in OVA-induced pulmonary eosinophila BALB/c mouse model assessed as suppression of eosinophil infiltration in lung treated 30 mins before and 24, 48 hrs after OVA challenge; type: functional, organism-based

SMILES | IC50 [1] [nM] | activity at 5 µM (CYP3A4 [2]) [%] | activity at 0.5 h, 5 µM (CYP3A4 [3]) [%] | IC50 (T-cell) [nM] | Activity (Mus musculus)
Fc1cc(F)cc(Cn2ccc3cnc(Nc4ccc(N5CCOCC5)cc4)nc32)c1 | 120 | 80 | 37 |  | 
Fc1ccc(Cn2ccc3cnc(Nc4ccc(N5CCOCC5)cc4)nc32)cc1 | 4100 | 82 | 43 |  | 
Fc1ccccc1Cn1ccc2cnc(Nc3ccc(N4CCOCC4)cc3)nc21 | 220 | 78 | 32 |  | 
Fc1cccc(Cn2ccc3cnc(Nc4ccc(N5CCOCC5)cc4)nc32)c1 | 37 | 97 | 56 |  | 
c1ccc(CN2CCc3cnc(Nc4ccc(N5CCOCC5)cc4)nc32)cc1 | 8300 |  |  |  | 
c1ccc(Cn2ccc3cnc(Nc4ccc(N5CCOCC5)cc4)nc32)cc1 | 400 | 88 | 34 |  | 

Compounds with a lower IC50 [1], results first:

IC50 [1] [nM] | activity at 5 µM (CYP3A4 [2]) [%] | activity at 0.5 h, 5 µM (CYP3A4 [3]) [%] | IC50 (T-cell) [nM] | SMILES | Activity (Mus musculus)
34 | 65 | 105 |  | NCCN1CCN(c2ccc(Nc3ncc4ccn(Cc5cc(F)cc(F)c5)c4n3)cc2)CC1 | 
26 | 100 | 98 |  | O=C(O)CN1CCN(c2ccc(Nc3ncc4ccn(Cc5cc(F)cc(F)c5)c4n3)cc2)CC1 | 
12 | 74 | 95 |  | Fc1cc(F)cc(Cn2ccc3cnc(Nc4ccc(N5CCNCC5)cc4)nc32)c1 | 
6.5 |  |  |  | NC(=O)c1cnc(Nc2ccc(N3CCOCC3)cc2)nc1NCc1ccccc1 | 
5.6 | 86 | 86 |  | OCCN1CCN(c2ccc(Nc3ncc4ccn(Cc5cc(F)cc(F)c5)c4n3)cc2)CC1 | 
4.7 | 85 | 77 |  | CNC(=O)CN1CCN(c2ccc(Nc3ncc4ccn(Cc5cc(F)cc(F)c5)c4n3)cc2)CC1 | 
3.2 | 90 | 88 |  | CN1CCN(c2ccc(Nc3ncc4ccn(Cc5cc(F)cc(F)c5)c4n3)cc2)CC1 | 
1.9 | 104 | 85 | 2.4 | NC(=O)CN1CCN(c2ccc(Nc3ncc4ccn(Cc5cc(F)cc(F)c5)c4n3)cc2)CC1 | Dose-dependent effect
0.7 | 100 | 31 |  | NC(=O)c1cnc(Nc2ccc(N3CCOCC3)cc2)nc1NCc1c(F)ccc(F)c1F | 
